Test results reported in ChEMBL document CHEMBL1139642, “Design, synthesis, and evaluation of dioxane-based antiviral agents targeted against the Sindbis virus capsid protein” (Bioorg Med Chem Lett, 2005).

Assays:
[1] = Cytotoxic concentration for 50% growth inhibition of uninfected BHK cells; assay type: cell-based, Mesocricetus auratus; conditions: hamster
Sindbis virus = assay: Effective concentration resulting in a 50% reduction in virus production in BHK cells; assay type: functional, organism-based

EC50 (Sindbis virus)	SMILES	CC50 [1]
1 µM	OC[C@@H]1COCCO1	> 1000 µM
> 100 µM	O=C(C[C@@H]1COCCO1)C[C@@H]1COCCO1	> 1000 µM
40 µM	C(C[C@@H]1COCCO1)C[C@@H]1COCCO1	> 1000 µM
> 100 µM	c1ccc(CCCC[C@@H]2COCCO2)cc1	600 µM
